From US8338435B2, “Substituted pyrido(3,2-D) pyrimidines and pharmaceutical compositions for treating viral infections” (Gilead Sciences, Inc., priority 2006, dated 2012) come the findings set out here.

The term EC50 denotes the concentration giving half of the maximal effect. By CC50 is commonly meant the concentration giving 50% cytotoxicity. Lower therefore signals greater toxicity to the cells.

For data set [1], the system named is HCV replicon. Briefly: Anti-HCV replicon assay, EC50 (luciferase luminescence). The conditions noted are these: Hepatitis C virus. The data set is classed as cell-based. The method, then: (§1) The anti-HCV activity of certain pyrido[3,2-d]pyrimidine derivatives of this invention was tested in a human hepatoma Huh-7 cell line harbouring a HCV replicon. The assay comprised the following steps:
(§2) Step 1: Compound Preparation and Serial Dilution
(§3) • 1. for water soluble pyrido[3,2-d]pyrimidine derivatives, a volume of 500 μL of solution in cell media (DMEM, 10% FBS, P/S, L-Glutamine) was prepared with a concentration being twice the concentration of the starting final serial dilution concentration. A volume of 150 μL of the solution was added to the pre-specified wells in column 1 of a 96-well cell culture plate (PerkinElmer, white plate, cat. #6005181, for EC50 assay; black plate, cat. #6005182 for CC50 assay). The rest of the plate, columns 2-12, was filled with 100 μL of cell media. The plate was then placed on a Precision 2000 Workstation to start the serial dilution. Compounds were diluted three times each step from column 1 to column 10. Column 11 was used as a blank control (no compound added). • 2. for pyrido[3,2-d]pyrimidine derivatives requiring DMSO to dissolve, serial dilution is performed in 50% DMSO in a 384-well plate. A solution containing a compound at 100-fold concentration of the starting final serial dilution concentration was prepared in 50% DMSO and added to the pre-specified wells in column 1 of a polypropylene 384-well plate. The plate was then placed on a Precision 2000 Workstation to start the serial dilution. After the serial dilution, a volume of 2 μL of the solution was transferred from the 384-well plate to a 96-well cell culture plate containing 100 μL of cell media on a Biomek FX Workstation. The DMSO concentration in the final assay condition was 0.5% after cells are added to the plate and the total volume in each well is brought to 200 μL. Step 2: to each well of the serial dilution plate prepared above, 100 μL of cell media containing 6000 suspended Huh-7 HCV replicon cells was added with a Multidrop workstation. The plates were incubated for 3 days at 37° C. with 5% CO2. Step 3: Detection: • a) for the EC50 assay, the media in a 96-well cell culture plate was aspirated with a Biotek EL405 plate-washer. A volume of 200 μL of a solution containing a 1:1 mixture of cell-lysis buffer (Promega, Luciferase Cell Culture Lysis 5× Reagent, cat. #E1531) and luciferase substrate solution (Promega, Luciferase Assay, cat. # E4550) was added to each well of the plate with Multidrop. The plate was incubated for 30 minutes at room temperature before the luminescence signal was measured with a TopCount plate-reader. • b) for the CC50 assay, a volume of 100 μL of pre-mixed CellTiter-Glo (Promega, cat. # G7572) solution is added directly to the cell culture in each well of the plate and the luminescence signal is measured with a TopCount plate-reader after 10 minutes of incubation at room temperature.
(§4) Results in the table below are expressed by the following data: • the 50% cytostatic concentration (CC50). i.e. the concentration that results in 50% inhibition of cell growth, and • the 50% effective concentration (EC50), i.e. the concentration that protects 50% of the cell monolayer from virus-induced cythopathic effect.

Data set [2] in a line: CC50 assay (CellTiter-Glo) in the replicon cells. The data set is classed as cell-based. Conditions: human, Huh-7 HCV replicon cells, 3 days incubation, 50% inhibition of cell growth. The method, then: as §1, §2, §3, §4
(Cellular ATP, detected with luciferase, serves as a proxy for viable cell number.)

Setting [3] is: 72 h, human hepatoma Huh-7 cell line harbouring a HCV replicon, 3 days incubation, luciferase readout, read-out: EC50.

Where two headings read alike, the source gives them in different places.

`CCCc1nc(N)nc2ccc(-c3ccc(F)cc3)nc12` [Example 2, 6-(4-fluorophenyl)-4-n-propyl-pyrido[3,2-d]pyrimidin-2-yl-amine]: in data set [1] (setting [3]), the EC50 was less than 300 nM. In data set [2], this compound showed a CC50 at 3 days of more than 20000 nM.
In the same order, the values of `CCCc1nc(N)nc2ccc(-c3ccc(NC(C)=O)cc3)nc12` [Example 3, N-[4-(2-amino-4-n-propyl-pyrido[3,2-d]pyrimidin-6-yl)-phenyl]-acetamide] are 300 to 1000 nM and more than 20000 nM.
In the case of `CCc1nc(N)nc2ccc(-c3ccc(F)cc3)nc12` [Example 5, 4-ethyl-6-(4-fluoro-phenyl)-pyrido[3,2-d]pyrimidin-2-ylamine], the EC50 in data set [1] (setting [3]) was less than 300 nM. Also, the CC50 at 3 days in data set [2] is less than 10000 nM.
For `CC(C)Cc1nc(N)nc2ccc(-c3ccc(F)cc3)nc12` [Example 6, 6-(4-fluorophenyl)-4-isobutyl-pyrido[3,2-d]pyrimidin-2-ylamine], the 50% effective concentration (EC50) in data set [1] (setting [3]) was less than 300 nM. This compound also came in with a CC50 at 3 days in data set [2] of more than 20000 nM.
Take `C=CCCc1nc(N)nc2ccc(-c3ccc(F)cc3)nc12` [Example 7, 4-but-3-enyl-6-(4-fluorophenyl)-pyrido[3,2-d]pyrimidin-2-ylamine]: the EC50 in data set [1] (Huh-7, 72 h) is less than 300 nM. The CC50 at 3 days in data set [2] is more than 20000 nM.
For `CCc1nc(N)nc2ccc(-c3ccc(N4CCCC4=O)cc3)nc12` [Example 8, 1-[4-(2-amino-4-ethyl-pyrido[3,2-d]pyrimidin-6-yl)-phenyl]-pyrrolidin-2-one], the EC50 in data set [1] (setting [3]) was less than 300 nM. Further, in data set [2], the CC50 at 3 days is more than 20000 nM.
In the same order, the values of `CCc1nc(N)nc2ccc(-c3cnc(N)cn3)nc12` [Example 9, 6-(5-Amino-pyrazin-2-yl)-4-ethyl-pyrido[3,2-d]pyrimidin-2-ylamine] are 300 to 1000 nM and less than 10000 nM.
Take `Nc1nc(CCC2OCCCO2)c2nc(-c3ccc(F)cc3)ccc2n1` [Example 10, 4-(2-[1,3]dioxan-2-yl-ethyl)-6-(4-fluoro-phenyl)-pyrido[3,2-d]pyrimidin-2-ylamine]: the EC50 in data set [1] (Huh-7, 72 h) is 300 to 1000 nM. The compound further displayed a CC50 at 3 days in data set [2] of more than 20000 nM.
As for `Cc1nc(N)nc2ccc(-c3ccc(F)cc3)nc12` [Example 11, 4-methyl-6-(4-fluorophenyl)-pyrido[3,2-d]pyrimidin-2-ylamine], in data set [1] (setting [3]), the EC50 was less than 300 nM. Moreover, the CC50 at 3 days in data set [2] is less than 10000 nM.
Turning to `CC(C)c1nc(N)nc2ccc(-c3ccc(F)cc3)nc12` [Example 12, 6-(4-fluorophenyl)-4-isopropyl-pyrido[3,2-d]pyrimidin-2-ylamine], the EC50 in data set [1] (setting [3]) was less than 300 nM. Besides, in data set [2], the CC50 at 3 days is more than 20000 nM.
For the compound `Nc1nc(C2CC2)c2nc(-c3ccc(F)cc3)ccc2n1` [Example 13, 4-Cyclopropyl-6-(4-fluoro-phenyl)-pyrido[3,2-d]pyrimidin-2-ylamine], the EC50 in data set [1] (setting [3]) is less than 300 nM. For the same compound, in data set [2], the CC50 at 3 days is 10000 to 20000 nM.
On to `Nc1nc(C2CC2)c2nc(-c3ccc(N4CCCC4=O)cc3)ccc2n1` [Example 14, 1-[4-(2-amino-4-cyclopropyl-pyrido[3,2-d]pyrimidin-6-yl)-phenyl]-pyrrolidin-2-one], for which, in data set [1] (setting [3]), the EC50 was less than 300 nM. For the same compound, the CC50 at 3 days in data set [2] is 10000 to 20000 nM.
